Reference: patent US20020183365A1, “Method for treating fibrotic diseases or other indications IIIC” (priority 2000, published 2002)
Structures can show the parent of a compound that is named as a salt.

Legend:
[1] = series exploring certain imidazolium compounds; cited from earlier work
TGFbeta = assay: In situ hybridization studies, TGFbeta
Description: (§1) Cardiovascular risk correlates more closely with the systolic and the pulse pressure than with the diastolic pressure. In diabetic patients, the cardiovascular risk profile of diabetic patients is strongly correlated to duration of diabetes, glycemic control and blood pressure. Structural matrix proteins contribute to the function of vessels and the heart, and changes in the physical behavior of cardiovascular walls are believed to be important determinants of circulatory function. In elderly individuals, the loss of compliance in the aorta leads to isolated systolic hypertension, which in turn expands the arterial wall and thereby diminishes the dynamic range of elasticity.

[2] = tested on: rodents, canines and primates; assay: In vivo studies of vascular stiffening
Description: as §1

Rats = assay: Rat myocardial infarct model (coronary artery ligation), histological examination of hearts; type: in vivo; conditions: daily intraperitoneal 10 mg/kg for 30 days before and 14 days after ligation; placebo 0.16±0.04 g; p=0.04
Description: Rats received a daily intraperitoneal dose of 10 mg/kg 3-[2-phenyl-2-oxoethyl]-4,5-dimethyl-thiazolium salt (compound A) (n=14) or placebo (n=15) for 30 days. The animals then underwent a thoracotomy and the left anterior descending coronary artery ligated. The chest was then closed and the animals allowed to recover for 14 days while continuing to be treated with compound A or placebo. The animals were then sacrificed and the hearts removed for histological examination. The weight of the infarcted tissue was 0.16±0.04 g for the placebo treated animals compared to 0.11±0.05 g for the compound A treated animals (p=0.04).

Type IV collagen = assay: In situ hybridization studies, Type IV collagen
Description: as §1

[3] = tested on: collagen in cardiovascular tissues; assay: Mass of collagen in cardiovascular tissues after treatment; conditions: in vivo
Description: as §1

dog model for diabetes = assay: Dog model for diabetes, ventricular elasticity; type: in vivo
Description: as §1

[4] = tested on: elderly patients with pulse pressures greater than 60 mm Hg; assay: Phase IIa clinical trial; type: in vivo, human
Description: When the heart pumps blood into the vascular system, the ability of the arteries to expand helps to push blood through the body. When arteries become stiff, as they do in the natural process of aging, the ability of the arteries to expand is diminished and also has consequences for the heart. The heart has to work harder to pump the blood into the stiff arteries, and eventually hypertrophies (enlarges in size) to accomplish this. A hypertrophied heart is an inefficient pump, and is one of the disorders that leads to congestive heart failure. […] The potential clinical benefit of this is to lessen the effort that the heart must expend to push blood throughout the body. The effect is also believed to contribute to preventing hypertrophy and subsequent inefficiency of the heart, which inefficiency would contribute to congestive heart failure.
Atherosclerosis is a disease that involves deposition of blood lipids in plaque in the arteries throughout the body. In coronary arteries, accumulation of plaque progressively leads to reduced coronary flow, with occlusion of the arteries causing focal death of cardiac tissue (myocardial infarction, heart attack). If the amount of tissue that dies is large enough, death ensures. […] Reducing local deposits of plaque should eventually lessen the risk of myocardial infarction and death due to heart attacks.
Pulse pressure is the difference between systolic and diastolic blood pressure. In a young human, systolic pressure is typically 120 mm Hg and diastolic pressure is 80 mm Hg, resulting in a pulse pressure of 40 mm Hg. With age, in many individuals pulse pressure increases, largely due to the increase in systolic pressure that results from stiff vessel disease. In individuals with pulse pressure greater than 60 mm Hg there is an increased risk of death from cardiovascular morbidities. […] This decrease in pulse pressure was believed to be due primarily to the effect of the agent on lowering the systolic blood pressure.

Row | SMILES | glucose lowering effect [1] | expression of TGFbeta (TGFbeta) | vascular stiffening [2] | weight of the infarcted tissue (Rats) | expression of Type IV collagen (Type IV collagen) | mass of collagen in cardiovascular tissues [3] | end diastolic pressure, indicator of ventricular elasticity (dog model for diabetes) | end diastolic volume, indicator of ventricular elasticity (dog model for diabetes) | stiffness of arteries, as measured by the ratio of stroke volume (ml) to pulse pressure (mm Hg) ([4]; Phase IIa clinical trial) | amount of circulating triglycerides (lipids) ([4]; Phase IIa trial) | pulse pressure ([4]; Phase IIa trial, elderly patients with pulse pressures greater than 60 mm Hg, statistically significant)
1 | Cc1ccc(C(=O)C[n+]2ccccc2)cc1.[Cl-] [1-[2-(4-methylphenyl)-2-oxoethyl]-pyridinium chloride] | inactive |  |  |  |  |  |  |  |  |  | 
2 | Cc1sc[n+](CC(=O)c2ccccc2)c1C [compound A, 3-[2-phenyl-2-oxoethyl]-4,5-dimethyl-thiazolium salt] |  | reduces the expression | substantially ameliorating vascular stiffening | 0.11 ± 0.05 g | reduces the expression | reduction in the mass of collagen | returned to a value at about the mid-point between the disease impaired value and the value for control dogs | returned to a value at about the mid-point between the disease impaired value and the value for control dogs | showed an ability to reverse the stiffness of arteries | increased the amount of circulating triglycerides | reduced pulse pressure
